# Laboratory results: paper PMC4335062, “Data-Driven Prediction and Design of bZIP Coiled-Coil Interactions” (PLoS Computational Biology, 2015)
# Read-outs that look alike come from different tables or passages of the source. Where no end group is shown, it is not given here.
# Experiments:
# Experiment in all cases: Direct-binding FRET assay
# ATF5 = target: T1, ATF5 (Homo sapiens, UniProt Q9Y2D1); conditions: read-out: Kd
# T1 construct: made in house
# T1 sequence (Q9Y2D1 208-271 limits assumed): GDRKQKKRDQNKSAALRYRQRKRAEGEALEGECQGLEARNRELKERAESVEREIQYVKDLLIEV
# Summary of the method: (§1)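 First, wells held 1 mM TCEP-HCl; next, acceptor protein was serially diluted 2-fold across them; then donor fluorescence was fitted to simulated dimer equilibria to assign heterodimer Kd. Anomalous curves ("AS") were refitted after removing the first five points.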
# ATF2 = target: T2, ATF2 (Homo sapiens, UniProt P15336); conditions: mean or single, read-out: Kd
# T2 construct: made in house
# T2 sequence (P15336 352-415 limits assumed): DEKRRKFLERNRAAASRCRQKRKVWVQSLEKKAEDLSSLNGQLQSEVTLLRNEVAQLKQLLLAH
# Summary of the method: as §1
# JUNB = target: T3, JUNB (Homo sapiens, UniProt P17275); conditions: mean or single, read-out: Kd
# T3 construct: made in house
# T3 sequence (P17275 268-331 limits assumed): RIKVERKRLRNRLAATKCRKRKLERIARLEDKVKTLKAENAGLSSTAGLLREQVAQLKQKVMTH
# Summary of the method: as §1
# NFIL3 = target: T4, NFIL3 (Homo sapiens, UniProt Q16649); conditions: mean or single, read-out: Kd
# T4 construct: made in house
# T4 sequence (Q16649 73-136 limits assumed): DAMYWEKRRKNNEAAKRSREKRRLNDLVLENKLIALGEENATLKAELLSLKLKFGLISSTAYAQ
# Summary of the method: as §1
# HLF = target: T5, HLF (Homo sapiens, UniProt Q16534); conditions: mean or single, read-out: Kd
# T5 construct: made in house
# T5 sequence (Q16534 225-288 limits assumed): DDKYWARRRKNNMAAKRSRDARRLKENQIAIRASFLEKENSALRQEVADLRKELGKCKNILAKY
# Summary of the method: as §1
# DBP = target: T6, DBP (Homo sapiens, UniProt Q10586); conditions: mean or single, read-out: Kd
# T6 construct: made in house
# T6 sequence (Q10586 255-318 limits assumed): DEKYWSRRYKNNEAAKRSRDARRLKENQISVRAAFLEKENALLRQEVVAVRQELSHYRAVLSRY
# Summary of the method: as §1
# BATF2 = target: T7, BATF2 (Homo sapiens, UniProt Q8N1L9); conditions: mean or single, read-out: Kd
# T7 construct: made in house
# T7 sequence (Q8N1L9 17-80 limits assumed): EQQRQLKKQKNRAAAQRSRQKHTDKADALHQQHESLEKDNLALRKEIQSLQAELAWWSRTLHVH
# Summary of the method: as §1
# FOSL1 = target: T8, FOSL1 (Homo sapiens, UniProt P15407); conditions: mean or single, read-out: Kd
# T8 construct: made in house
# T8 sequence (P15407 105-168 limits assumed): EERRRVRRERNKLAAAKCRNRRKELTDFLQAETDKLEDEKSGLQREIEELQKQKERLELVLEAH
# Summary of the method: as §1
# CREB3 = target: T9, CREB3 (Homo sapiens, UniProt O43889); conditions: mean or single, read-out: Kd
# T9 construct: made in house
# T9 sequence (O43889 150-213 limits assumed): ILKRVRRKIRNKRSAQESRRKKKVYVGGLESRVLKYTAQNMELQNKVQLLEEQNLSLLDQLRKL
# Summary of the method: as §1
# BATF3 = target: T10, BATF3 (Homo sapiens, UniProt Q9NR55); conditions: mean or single, read-out: Kd
# T10 construct: made in house
# T10 sequence (Q9NR55 35-98 limits assumed): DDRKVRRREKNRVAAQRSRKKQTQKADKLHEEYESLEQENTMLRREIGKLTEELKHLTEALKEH
# Summary of the method: as §1
# [1] = 4°C, C-terminal rhodamine design
# [2] = 23°C, C-terminal rhodamine design
# [3] = 23°C, N-terminal rhodamine design
# [4] = 37°C, C-terminal rhodamine design
# [5] = 37°C, N-terminal rhodamine design
# [6] = 4°C, N-terminal rhodamine design
sequence,measurement,setting,value
KRIAYLRQRIAELRNENHVLESRIQRMEKEKDALQQDRDHLEYEL [ATF5-d1],Kd,"ATF5; 4°C, C-terminal rhodamine design, mean or single",1.1 nM
same,Kd,"ATF5; 4°C, N-terminal rhodamine design, repeat 3",200 to 1000 nM
same,Kd,"ATF5; 37°C, C-terminal rhodamine design, mean or single",1680 nM
same,Kd,"ATF5; 37°C, N-terminal rhodamine design, repeat 1",> 1000 nM
same,Kd,"ATF5; 37°C, N-terminal rhodamine design, repeat 2",> 1000 nM
same,Kd,"ATF5; 37°C, N-terminal rhodamine design, repeat 3",> 5000 nM
same,Kd,ATF2; [1],> 5000 nM
same,Kd,ATF2; [2],> 5000 nM
same,Kd,ATF2; [3],> 1000 nM
same,Kd,ATF2; [4],> 5000 nM
same,Kd,ATF2; [5],> 1000 nM
same,Kd,JUNB; [1],3620 nM
same,Kd,JUNB; [6],> 1000 nM
same,Kd,JUNB; [2],> 1000 nM
same,Kd,JUNB; [3],> 1000 nM
same,Kd,JUNB; [4],> 1000 nM
same,Kd,JUNB; [5],> 1000 nM
same,Kd,NFIL3; [1],> 1000 nM
same,Kd,NFIL3; [6],> 1000 nM
same,Kd,NFIL3; [2],> 1000 nM
same,Kd,NFIL3; [3],> 1000 nM
same,Kd,NFIL3; [4],> 1000 nM
same,Kd,NFIL3; [5],> 1000 nM
same,Kd,HLF; [1],> 5000 nM
same,Kd,HLF; [6],> 5000 nM
same,Kd,HLF; [2],> 5000 nM
same,Kd,HLF; [3],> 1000 nM
same,Kd,HLF; [4],> 5000 nM
same,Kd,HLF; [5],> 1000 nM
same,Kd,DBP; [1],> 1000 nM
same,Kd,DBP; [6],> 5000 nM
same,Kd,DBP; [2],> 1000 nM
same,Kd,DBP; [3],> 1000 nM
same,Kd,DBP; [4],> 1000 nM
same,Kd,DBP; [5],> 1000 nM
same,Kd,BATF2; [1],591 nM
same,Kd,BATF2; [6],76 nM
same,Kd,BATF2; [2],> 5000 nM
same,Kd,BATF2; [3],509 nM
same,Kd,BATF2; [4],> 1000 nM
same,Kd,BATF2; [5],> 5000 nM
same,Kd,FOSL1; [1],84.1 nM
same,Kd,FOSL1; [6],271 nM
same,Kd,FOSL1; [2],695 nM
same,Kd,FOSL1; [3],> 5000 nM
same,Kd,FOSL1; [4],> 1000 nM
same,Kd,CREB3; [1],147 nM
same,Kd,CREB3; [6],> 1000 nM
same,Kd,CREB3; [2],> 5000 nM
same,Kd,CREB3; [3],> 1000 nM
same,Kd,CREB3; [4],200 to 1000 nM
same,Kd,CREB3; [5],> 1000 nM
same,Kd,BATF3; [1],192 nM
same,Kd,BATF3; [6],52.8 nM
same,Kd,BATF3; [2],791 nM
same,Kd,BATF3; [3],315 nM
same,Kd,BATF3; [4],> 5000 nM
same,Kd,BATF3; [5],> 5000 nM
